Test results: article PMC6576746, “Rational discovery of dual-indication multi-target PDE/Kinase inhibitor for precision anti-cancer therapy using structural systems pharmacology” (PLoS Computational Biology, 2019)

Key:
Assay in all cases: biochemical
Design in all cases: DiscoverX KinomeScan competition binding assay across human kinases; per cent of control at 10 and 100 uM
LTK = LTK (Homo sapiens, UniProt P29376); settings: competition binding, % of control; read-out: Percent Control (100 uM Levosimendan)
Method in brief: (§1)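 KinomeScan competition binding was run across a human kinase panel at 10 μM and 100 μM levosimendan. Results are %control = (test − positive control)/(negative control − positive control) × 100.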

CDK3 = CDK3 (Homo sapiens, UniProt Q00526); settings: competition binding, % of control; read-out: Percent Control (100 uM Levosimendan)
Method in brief: as §1

[1] = target: T1, ABL1(Y253F)-phosphorylated (Homo sapiens, UniProt P00519, Y253F); settings: competition binding, % of control; read-out: Percent Control (100 uM Levosimendan)
T1 construct: phosphorylated
Method in brief: as §1

ABL2 = ABL2 (Homo sapiens, UniProt P42684); settings: competition binding, % of control; read-out: Percent Control (100 uM Levosimendan)
Method in brief: as §1

STK16 = STK16 (Homo sapiens, UniProt O75716); settings: competition binding, % of control; read-out: Percent Control (100 uM Levosimendan)
Method in brief: as §1

CDC2L2 = target: T2, CDC2L2 (Homo sapiens, UniProt Q9UQ88); settings: competition binding, % of control; read-out: Percent Control (100 uM Levosimendan)
T2 construct: gene CDK11A
Method in brief: as §1

IRAK3 = IRAK3 (Homo sapiens, UniProt Q9Y616); settings: competition binding, % of control; read-out: Percent Control (100 uM Levosimendan)
Method in brief: as §1

PCTK3 = target: T3, PCTK3 (Homo sapiens, UniProt Q07002); settings: competition binding, % of control; read-out: Percent Control (100 uM Levosimendan)
T3 construct: gene CDK18
Method in brief: as §1

[2] = target: T4, ABL1(F317L)-nonphosphorylated (Homo sapiens, UniProt P00519, F317L); settings: competition binding, % of control; read-out: Percent Control (100 uM Levosimendan)
T4 construct: nonphosphorylated
Method in brief: as §1

IGF1R = IGF1R (Homo sapiens, UniProt P08069); settings: competition binding, % of control; read-out: Percent Control (100 uM Levosimendan)
Method in brief: as §1

FLT3 = FLT3 (Homo sapiens, UniProt P36888); settings: competition binding, % of control
Chain of FLT3 (P36888 whole entry): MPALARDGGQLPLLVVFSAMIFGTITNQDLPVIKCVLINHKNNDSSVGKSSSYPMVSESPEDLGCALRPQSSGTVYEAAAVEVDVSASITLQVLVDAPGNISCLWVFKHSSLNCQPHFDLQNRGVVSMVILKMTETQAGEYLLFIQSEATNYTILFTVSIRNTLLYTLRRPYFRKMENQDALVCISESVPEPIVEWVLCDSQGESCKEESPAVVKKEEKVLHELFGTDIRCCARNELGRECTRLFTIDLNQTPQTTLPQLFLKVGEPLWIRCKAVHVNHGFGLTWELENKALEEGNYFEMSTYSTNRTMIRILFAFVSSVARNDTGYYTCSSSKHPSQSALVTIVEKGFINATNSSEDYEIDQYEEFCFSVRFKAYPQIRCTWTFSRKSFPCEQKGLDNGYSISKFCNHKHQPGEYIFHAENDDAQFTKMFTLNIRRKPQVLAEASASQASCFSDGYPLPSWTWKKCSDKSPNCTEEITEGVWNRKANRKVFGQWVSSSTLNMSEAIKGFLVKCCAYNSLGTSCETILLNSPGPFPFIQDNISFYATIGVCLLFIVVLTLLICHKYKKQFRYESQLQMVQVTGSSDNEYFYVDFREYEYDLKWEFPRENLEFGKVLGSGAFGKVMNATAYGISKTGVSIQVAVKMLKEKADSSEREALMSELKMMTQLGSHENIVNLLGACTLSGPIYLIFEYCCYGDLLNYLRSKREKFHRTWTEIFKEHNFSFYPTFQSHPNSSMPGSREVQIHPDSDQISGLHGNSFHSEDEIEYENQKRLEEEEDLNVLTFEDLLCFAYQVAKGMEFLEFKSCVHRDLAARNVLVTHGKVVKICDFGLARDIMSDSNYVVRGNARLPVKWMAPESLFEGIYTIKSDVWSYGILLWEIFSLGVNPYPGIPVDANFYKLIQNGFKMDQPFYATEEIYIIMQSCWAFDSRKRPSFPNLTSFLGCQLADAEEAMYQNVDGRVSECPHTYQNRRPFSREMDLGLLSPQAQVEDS
Method in brief: as §1

TYRO3 = TYRO3 (Homo sapiens, UniProt Q06418); settings: competition binding, % of control; read-out: Percent Control (100 uM Levosimendan)
Method in brief: as §1

TNIK = TNIK (Homo sapiens, UniProt Q9UKE5); settings: competition binding, % of control
Chain of TNIK (Q9UKE5 whole entry): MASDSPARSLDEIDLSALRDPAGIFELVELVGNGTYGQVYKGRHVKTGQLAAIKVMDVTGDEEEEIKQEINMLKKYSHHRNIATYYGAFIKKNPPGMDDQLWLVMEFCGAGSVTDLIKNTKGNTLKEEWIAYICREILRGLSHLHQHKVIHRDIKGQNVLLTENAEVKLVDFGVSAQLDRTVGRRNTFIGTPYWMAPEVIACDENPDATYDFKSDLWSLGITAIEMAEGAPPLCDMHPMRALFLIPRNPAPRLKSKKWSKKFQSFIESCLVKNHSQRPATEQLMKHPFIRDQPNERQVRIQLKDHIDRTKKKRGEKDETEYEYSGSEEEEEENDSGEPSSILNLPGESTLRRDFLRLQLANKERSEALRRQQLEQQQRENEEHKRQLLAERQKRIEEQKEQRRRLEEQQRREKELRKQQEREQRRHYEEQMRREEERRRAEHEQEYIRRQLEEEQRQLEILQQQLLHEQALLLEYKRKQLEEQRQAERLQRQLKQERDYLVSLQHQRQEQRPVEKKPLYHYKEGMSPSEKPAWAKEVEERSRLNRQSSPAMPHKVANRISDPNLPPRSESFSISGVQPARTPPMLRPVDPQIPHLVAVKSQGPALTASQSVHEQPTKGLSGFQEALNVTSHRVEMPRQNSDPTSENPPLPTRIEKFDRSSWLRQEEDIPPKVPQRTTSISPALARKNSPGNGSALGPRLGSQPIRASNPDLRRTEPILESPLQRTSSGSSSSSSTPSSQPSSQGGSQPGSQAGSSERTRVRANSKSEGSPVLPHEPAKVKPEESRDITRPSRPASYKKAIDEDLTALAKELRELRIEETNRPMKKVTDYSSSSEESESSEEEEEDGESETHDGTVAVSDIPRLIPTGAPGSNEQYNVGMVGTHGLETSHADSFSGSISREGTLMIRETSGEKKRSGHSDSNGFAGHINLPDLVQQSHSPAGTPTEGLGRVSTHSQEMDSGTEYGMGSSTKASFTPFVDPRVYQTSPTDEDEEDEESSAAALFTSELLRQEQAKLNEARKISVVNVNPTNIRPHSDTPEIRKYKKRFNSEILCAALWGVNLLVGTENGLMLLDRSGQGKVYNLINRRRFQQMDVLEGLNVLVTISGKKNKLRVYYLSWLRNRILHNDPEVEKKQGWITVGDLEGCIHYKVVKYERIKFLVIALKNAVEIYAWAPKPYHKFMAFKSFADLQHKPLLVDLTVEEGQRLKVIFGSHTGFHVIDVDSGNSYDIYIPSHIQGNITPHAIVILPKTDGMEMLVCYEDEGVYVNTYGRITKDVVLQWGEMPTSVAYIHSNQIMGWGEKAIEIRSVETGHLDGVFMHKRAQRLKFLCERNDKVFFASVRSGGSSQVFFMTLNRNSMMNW
Method in brief: as §1

ROCK1 = ROCK1 (Homo sapiens, UniProt Q13464); settings: competition binding, % of control; read-out: Percent Control (100 uM Levosimendan)
Chain of ROCK1 (Q13464 whole entry): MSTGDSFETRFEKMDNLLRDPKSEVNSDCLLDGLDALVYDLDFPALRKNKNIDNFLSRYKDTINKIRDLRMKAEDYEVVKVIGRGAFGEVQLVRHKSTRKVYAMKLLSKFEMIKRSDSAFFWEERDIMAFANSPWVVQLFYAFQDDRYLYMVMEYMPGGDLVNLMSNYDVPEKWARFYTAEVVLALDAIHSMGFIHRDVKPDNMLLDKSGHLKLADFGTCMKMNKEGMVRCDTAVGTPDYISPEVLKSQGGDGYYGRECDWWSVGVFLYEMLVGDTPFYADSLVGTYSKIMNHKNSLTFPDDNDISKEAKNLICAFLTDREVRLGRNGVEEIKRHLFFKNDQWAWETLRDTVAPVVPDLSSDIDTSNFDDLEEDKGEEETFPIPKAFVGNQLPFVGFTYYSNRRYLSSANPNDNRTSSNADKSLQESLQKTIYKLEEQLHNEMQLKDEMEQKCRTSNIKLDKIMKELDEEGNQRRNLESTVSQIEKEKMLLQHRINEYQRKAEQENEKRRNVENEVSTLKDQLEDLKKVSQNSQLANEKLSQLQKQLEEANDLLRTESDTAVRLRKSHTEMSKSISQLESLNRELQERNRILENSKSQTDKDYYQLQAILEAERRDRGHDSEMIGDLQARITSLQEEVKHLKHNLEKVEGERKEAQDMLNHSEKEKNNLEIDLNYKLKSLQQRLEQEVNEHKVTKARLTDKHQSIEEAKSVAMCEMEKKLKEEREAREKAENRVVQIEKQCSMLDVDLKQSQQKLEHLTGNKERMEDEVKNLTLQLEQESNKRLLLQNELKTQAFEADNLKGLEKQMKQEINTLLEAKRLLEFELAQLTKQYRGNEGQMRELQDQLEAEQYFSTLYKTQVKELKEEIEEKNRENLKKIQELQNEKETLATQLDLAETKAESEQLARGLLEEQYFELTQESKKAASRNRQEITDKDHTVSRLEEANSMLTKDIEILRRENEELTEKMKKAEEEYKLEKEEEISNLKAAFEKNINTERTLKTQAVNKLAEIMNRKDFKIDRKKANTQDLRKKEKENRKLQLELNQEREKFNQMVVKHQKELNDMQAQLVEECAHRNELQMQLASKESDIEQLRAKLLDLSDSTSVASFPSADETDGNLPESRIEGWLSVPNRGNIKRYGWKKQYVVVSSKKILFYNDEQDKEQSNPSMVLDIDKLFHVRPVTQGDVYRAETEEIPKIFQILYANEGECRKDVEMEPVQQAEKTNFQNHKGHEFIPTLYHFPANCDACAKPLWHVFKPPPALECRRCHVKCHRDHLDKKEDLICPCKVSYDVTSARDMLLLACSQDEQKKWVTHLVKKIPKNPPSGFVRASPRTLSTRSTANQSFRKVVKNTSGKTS
Method in brief: as §1

EPHA1 = EPHA1 (Homo sapiens, UniProt P21709); settings: competition binding, % of control; read-out: Percent Control (100 uM Levosimendan)
Chain of EPHA1 (P21709 whole entry): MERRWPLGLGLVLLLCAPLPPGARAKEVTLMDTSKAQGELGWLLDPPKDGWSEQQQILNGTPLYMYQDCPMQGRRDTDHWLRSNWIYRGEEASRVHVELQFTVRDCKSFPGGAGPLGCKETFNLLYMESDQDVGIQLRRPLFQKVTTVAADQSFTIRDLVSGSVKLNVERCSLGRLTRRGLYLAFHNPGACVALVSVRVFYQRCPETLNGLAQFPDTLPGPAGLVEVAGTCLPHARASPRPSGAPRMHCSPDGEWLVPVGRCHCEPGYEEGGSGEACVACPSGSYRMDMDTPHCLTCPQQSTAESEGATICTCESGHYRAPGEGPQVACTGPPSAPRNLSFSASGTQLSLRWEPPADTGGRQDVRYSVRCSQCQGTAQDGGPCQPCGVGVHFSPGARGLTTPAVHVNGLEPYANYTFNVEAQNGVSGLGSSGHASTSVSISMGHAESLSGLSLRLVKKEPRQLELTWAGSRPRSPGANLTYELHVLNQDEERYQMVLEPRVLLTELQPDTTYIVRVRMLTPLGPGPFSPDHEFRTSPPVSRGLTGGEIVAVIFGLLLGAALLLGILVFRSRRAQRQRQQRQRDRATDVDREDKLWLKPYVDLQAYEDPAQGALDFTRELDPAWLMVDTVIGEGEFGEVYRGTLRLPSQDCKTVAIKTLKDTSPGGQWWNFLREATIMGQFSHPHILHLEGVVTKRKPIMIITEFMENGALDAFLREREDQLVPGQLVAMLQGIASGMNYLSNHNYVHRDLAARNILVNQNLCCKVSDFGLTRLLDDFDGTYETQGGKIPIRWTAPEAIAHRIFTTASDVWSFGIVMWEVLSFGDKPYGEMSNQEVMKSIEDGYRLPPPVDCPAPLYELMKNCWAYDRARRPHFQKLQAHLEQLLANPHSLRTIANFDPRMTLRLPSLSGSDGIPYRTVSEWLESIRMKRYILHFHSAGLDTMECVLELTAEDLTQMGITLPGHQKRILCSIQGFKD
Method in brief: as §1

CDKL3 = CDKL3 (Homo sapiens, UniProt Q8IVW4); settings: competition binding, % of control; read-out: Percent Control (100 uM Levosimendan)
Method in brief: as §1

AURKA = AURKA (Homo sapiens, UniProt O14965); settings: competition binding, % of control; read-out: Percent Control (100 uM Levosimendan)
Chain of AURKA (O14965 whole entry): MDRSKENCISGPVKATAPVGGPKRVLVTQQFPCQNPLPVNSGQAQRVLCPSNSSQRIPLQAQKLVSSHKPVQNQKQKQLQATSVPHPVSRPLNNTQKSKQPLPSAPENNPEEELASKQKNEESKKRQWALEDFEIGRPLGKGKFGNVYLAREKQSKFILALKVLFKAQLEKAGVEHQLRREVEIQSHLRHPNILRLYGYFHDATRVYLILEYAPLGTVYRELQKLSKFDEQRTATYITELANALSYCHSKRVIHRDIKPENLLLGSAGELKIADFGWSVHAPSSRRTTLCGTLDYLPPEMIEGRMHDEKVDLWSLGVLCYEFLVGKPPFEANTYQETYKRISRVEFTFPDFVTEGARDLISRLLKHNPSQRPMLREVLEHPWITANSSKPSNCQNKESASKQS
Method in brief: as §1

ULK2 = ULK2 (Homo sapiens, UniProt Q8IYT8); settings: competition binding, % of control; read-out: Percent Control (100 uM Levosimendan)
Method in brief: as §1

ERBB2 = ERBB2 (Homo sapiens, UniProt P04626); settings: competition binding, % of control; read-out: Percent Control (100 uM Levosimendan)
Method in brief: as §1

[3] = read-out: Percent Control (10 uM Levosimendan)
[4] = read-out: Percent Control (100 uM Levosimendan)

## C[C@@H]1CC(=O)NN=C1c1ccc(NN=C(C#N)C#N)cc1 [levosimendan]
LTK
  remaining binding at 100 µM: 96%
CDK3
  remaining binding at 100 µM: 100%
[1]
  remaining binding at 100 µM: 87%
ABL2
  remaining binding at 100 µM: 89%
STK16
  remaining binding at 100 µM: 80%
CDC2L2
  remaining binding at 100 µM: 100%
IRAK3
  remaining binding at 100 µM: 100%
PCTK3
  remaining binding at 100 µM: 100%
[2]
  remaining binding at 100 µM: 100%
IGF1R
  remaining binding at 100 µM: 86%
FLT3; [3]
  remaining binding at 10 µM: 24%
FLT3; [4]
  remaining binding at 100 µM: 0.9%
TYRO3
  remaining binding at 100 µM: 94%
TNIK; [3]
  remaining binding at 10 µM: 77%
TNIK; [4]
  remaining binding at 100 µM: 32%
ROCK1
  remaining binding at 100 µM: 90%
EPHA1
  remaining binding at 100 µM: 98%
CDKL3
  remaining binding at 100 µM: 100%
AURKA
  remaining binding at 100 µM: 73%
ULK2
  remaining binding at 100 µM: 56%
ERBB2
  remaining binding at 100 µM: 100%
